Data on one compound can be found in EP1306084A1, “Compositions for the control of parasitic infestations in fish” (Alpharma AS, priority 1998, dated 1999).

A short description of data set [1]: Specific growth rate after sea transfer (Example 5). Format: in vivo, sea trout (Salmo trutta). Conditions: treated groups (oral, bath), after about 13 weeks; control group 0.37%. How it is done: About 300 sea trout (Salmo trutta) of an average weight of 160 grams were divided into three groups of 100 fish each. One group was given oral treatment for one week before they were transferred to sea at a daily dosage of 4 mg hexaflumuron per kg fish for 5 days. The second group was treated with a bath treatment using a dosage of 5 ppm hexaflumuron for 30 minutes with a formulation containing 10% hexaflumuron, while the last group remained untreated. The treatments were carried out in fresh water during the last week before the fish were transferred to sea water. In the sea water, the fish were distributed into 3 mini-cages with 100 fish in each. The fish were then exposed to natural sea lice infection. Lice from 6-10 fish from each cage were counted every third week to assess whether there was any difference in the number of lice between the cages. At the end of the trial, i.e. about 13 weeks after the fish had been transferred to sea, the fish in each cage were weighed to check possible differences in SGR. The water temperature varied within the range of 12 - 22°C during the trial.
After 11 weeks there was no difference between the groups, but the number of lice was very low in all groups, which makes it difficult to determine the length of the protection period. […] The SGR was determined after about 13 weeks. […]

Another data set concerns sea lice. The data set is described as follows: Oral or bath treatment in freshwater before sea transfer, sea lice counts after natural infestation (Example 6). It is filed as in vivo, Atlantic salmon (Salmo salar). How it is done:
The treatment dosage was 9 mg hexaflumuron per kg fish per day for 10 days. This is indicated by "Groups/Timepoints" in the figure; • Figure 2 relates to the trial in Example 2 that was carried out on Atlantic salmon (Salmo salar). […] The treatment dosage varied between 3 - 9 mg hexaflumuron and 9- 12 mg fluazuron per kg fish per day for 7 days. This is indicated by "Groups/Timepoints" in the diagram. […] The treated groups are compared to an untreated control group. The treatment dosage was 4 mg hexaflumuron per kg fish per day for 5 days. This is indicated by "Groups/Timepoints" in the figure. Cage 2 = controls, Cage 4-6 = treated groups, 16.6.97 = time point for sea transfer and 5.8.97= controls treated by bathing with deltamethrin; • Figure 4 relates to the trial described in Example 5, which was carried out on sea trout (Salmo trutta). […] The treated groups are compared with an untreated control group. The dosage for oral treatment was 4 mg hexaflumuron per kilo fish per day for 5 days, and 5 ppm hexaflumuron as a 30 minute bath treatment. This is indicated by "Groups/Timepoints" in the figure. Cage 1.4 = Controls, cage 1.3 = Oral treatment, cage 1.2 = Bath treatment. […] The treated groups are compared with an untreated control group, and one group that has been treated orally with teflubenzuron (10 mg/kg of teflubenzuron per kg fish per day for 7 days). The dosage for oral treatment was 5.6 mg hexaflumuron per kg fish per day for 7 days, and 5 ppm hexaflumuron as a 30 minute bath treatment. […] End of treatment: 22.10.97, Sea transfer: 23.10.97. T1 = 3 weeks post end of treatment, T2 = 5 weeks post end of treatment, T3 = 9 weeks post end of treatment, T4 = 12 weeks post end of treatment; • Figure 6 relates to the trial in Example 6 at time points 4-6, with the same trial parameters as for Figure 5. T5 = 15 weeks post end of treatment, T6 = 17 weeks post end of treatment. Cage 3 and 4 were treated by bath with deltamethrin after sea lice counting at T4 (12.01.98); • Figure 7 relates to the trial described in Example 7 where salmon were injected on 17.12.97 with two formulations (groups L and R, respectively) of hexaflumuron and a vaccine formulation without hexaflumuron (control). […] The vaccinated fish was transferred to sea water on 09.01.98; • Figure 8 summarises the trial of Example 8 where salmon smolts were injected with 9 different active substances on 08.07.98. Only results for Moxidectin (Mox.), Lufenuron (Luf.) and hexaflumuron in Apoject 1-Fural (Hex.Apo) and in animal oil (Hex.oil) are shown, and • Figure 9 summarises the trial described in Example 10 where salmon were injected on 03.12.97 with 3 different formulations of hexaflumuron (Hexa 1, Hexa 2 and Hexa 3). The fish were transferred to sea water at T0.
About 400 Atlantic salmon (Salmo salar) of an average weight of 80 grams were divided into four groups of 100 fish in each. One group was given an oral treatment of 5.6 mg hexaflumuron per kg fish each day for 7 days before sea transfer. Group two was given a bath treatment with a dosage of 5 ppm (mg/l) hexaflumuron for 30 minutes with a formulation containing 10% hexaflumuron. Group three was given oral treatment with a daily dosage of 10 mg teflubenzuron per kg fish for 7 days, while the last group remained untreated. […] Every third week, lice from 10 fish in each cage were counted to assess if there was a difference in the number of lice between the cages. […]

Data set [2] is described as follows: Adverse or side effects observed over all trials. It is filed as in vivo, fish. Conditions: injection, bath solution or oral treatment; all dosages examined. From the text:
This is in regard to all the dosages that have been examined and the various administration methods which have been used.

Each structure is given as a SMILES string.

Take `O=C(NC(=O)c1c(F)cccc1F)Nc1cc(Cl)c(OC(F)(F)C(F)F)c(Cl)c1` [hexaflumuron]: the SGR in data set [1] is given as 0.84 - 0.98%. In addition, the protection period result with sea lice (hexaflumuron oral or bath before sea transfer) is “at least 11 weeks”. Moreover, in the data set on sea lice (oral 5.6 mg per kg each day for 7 days or bath 5 ppm for 30 minutes, 5, 8 and 11 weeks (time points 2, 3 and 4)), the “number of lice larger than Chalimus II versus control” value is “significantly lower”. The “adverse or side effects” value in data set [2] is listed as “No adverse or side effects have been observed”.
